For one experiment, the target named is human V1a receptor (Homo sapiens, UniProt P37288). The experiment is described as follows: Cellular in vitro assay for determining vasopressin receptor activity, V1a receptor cell line (photoprotein luminescence). Type of experiment: cell-based. Conditions: for IC50: CHO cell line transfected with the human V1a receptor, agonist [Arg8]-vasopressin at EC50 concentration, read-out: IC50 hV1a; for ratio IC50 hV2/hV1a: selectivity ratio of the cellular IC50 values. The method, then: (§1) B-1. Cellular In Vitro Assay for Determining Vasopressin Receptor Activity
human V1a receptor, sequence (P37288 whole entry): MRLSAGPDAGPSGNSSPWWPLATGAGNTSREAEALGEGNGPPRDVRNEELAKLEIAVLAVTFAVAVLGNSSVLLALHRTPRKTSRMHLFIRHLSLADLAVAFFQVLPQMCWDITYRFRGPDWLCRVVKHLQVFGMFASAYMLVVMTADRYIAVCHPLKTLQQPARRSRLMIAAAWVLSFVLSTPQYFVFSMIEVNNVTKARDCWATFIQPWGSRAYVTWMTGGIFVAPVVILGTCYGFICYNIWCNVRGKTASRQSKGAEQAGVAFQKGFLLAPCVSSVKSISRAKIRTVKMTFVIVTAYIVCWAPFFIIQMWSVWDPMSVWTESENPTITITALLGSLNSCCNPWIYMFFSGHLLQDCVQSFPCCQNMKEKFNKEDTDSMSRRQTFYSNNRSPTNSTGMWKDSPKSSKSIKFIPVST
(§2) The identification of agonists and antagonists of the V1a and V2 vasopressin receptors from humans, rats and dogs as well as the quantification of the activity of the compounds of the invention is carried out using recombinant cell lines. These cell lines originally derive from a hamster's ovary epithelial cell (Chinese Hamster Ovary, CHO K1, ATCC: American Type Culture Collection, Manassas, Va. 20108, USA). The test cell lines constitutively express the human, rat or dog V1a or V2 receptors. In case of the Gαq-coupled V1a receptors, cells are also stably transfected with a modified form of the calcium-sensitive photoproteins aequorin (human and rat V1a) or obelin (dog V1a), which, after reconstitution with the cofactor coelenterazine, emit light when there are increases in free calcium concentrations [Rizzuto R, Simpson A W, Brini M, Pozzan T, Nature 358, 325-327 (1992); Illarionov B A, Bondar V S, Illarionova V A, Vysotski E S, Gene 153 (2), 273-274 (1995)]. The resulting vasopressin receptor cells react to stimulation of the recombinantly expressed V1a receptors by intracellular release of calcium ions, which can be quantified by the resulting photoprotein luminescence. The Gs-coupled V2 receptors are stably transfected into cell lines expressing the gene for firefly luciferase under control of a CRE-responsible promoter. Activation of V2 receptors induces the activation of the CRE-responsive promoter via cAMP increase, thereby inducing the expression of firefly luciferase. The light emitted by photoproteins of V1a cell lines as well as the light emitted by firefly luciferase of V2 cell lines corresponds to the activation or inhibition of the respective vasopressin receptor. The bioluminescence of the cell lines is detected using a suitable luminometer [Milligan G, Marshall F, Rees S, Trends in Pharmacological Sciences 17, 235-237 (1996)].
Vasopressin V1a Receptor Cell Lines:
On the day before the assay, the cells are plated out in culture medium (DMEM/F12, 2% FCS, 2 mM glutamine, 10 mM HEPES, 5 μg/ml coelenterazine) in 384-well microtiter plates and kept in a cell incubator (96% humidity, 5% v/v CO2, 37° C.). On the day of the assay, test compounds in various concentrations are placed for 10 minutes in the wells of the microtiter plate before the agonist [Arg^8]-vasopressin at EC50 concentration is added. The resulting light signal is measured immediately in a luminometer.
(§3) Table 1A below lists individual IC50 values for the compounds of the invention (including racemic mixtures as well as separated enantiomers) that were obtained from cell lines transfected with the human V1a or V2 receptor: […]

A further experiment addresses T1, human V2 receptor (Homo sapiens, UniProt P30518).
T1 construct: expressed in transfected cells; host or cells: CHO K1 (ATCC) expressing firefly luciferase under a CRE-responsive promoter
The experiment is described as follows: Cellular in vitro assay for determining vasopressin receptor activity, V2 receptor cell line (CRE-luciferase). Type of experiment: cell-based. The note with it: CHO cell line transfected with the human V2 receptor; agonist [Arg8]-vasopressin at EC50 concentration; read-out: IC50 hV2. On the procedure: as §1, §2
Vasopressin V2 Receptor Cell Lines:
On the day before the assay, the cells are plated out in culture medium (DMEM/F12, 2% FCS, 2 mM glutamine, 10 mM HEPES) in 384-well microtiter plates and kept in a cell incubator (96% humidity, 5% v/v CO2, 37° C.). On the day of the assay, test compounds in various concentrations and the agonist [Arg^8]-vasopressin at EC50 concentration are added together to the wells, and plates are incubated for 3 hours in a cell incubator. Upon addition of the cell lysis reagent Triton™ and the substrate luciferin, luminescence of firefly luciferase is measured in a luminometer.
as §3

T1 sequence (P30518 whole entry): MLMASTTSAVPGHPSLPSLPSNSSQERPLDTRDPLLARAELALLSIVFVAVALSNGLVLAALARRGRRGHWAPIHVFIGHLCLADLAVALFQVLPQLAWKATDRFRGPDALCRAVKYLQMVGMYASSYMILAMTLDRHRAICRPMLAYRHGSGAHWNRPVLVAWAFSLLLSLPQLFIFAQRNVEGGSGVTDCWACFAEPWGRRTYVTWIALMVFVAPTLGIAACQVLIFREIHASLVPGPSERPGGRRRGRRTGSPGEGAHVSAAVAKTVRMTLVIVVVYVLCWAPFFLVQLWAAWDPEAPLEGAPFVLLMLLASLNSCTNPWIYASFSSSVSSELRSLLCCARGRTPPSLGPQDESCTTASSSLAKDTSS

For `O=C1CCC(CNc2nc(Cn3nc(-c4ccc(Cl)cc4)n(C[C@H](O)C(F)(F)F)c3=O)nn2-c2ccccc2Cl)N1` (single isomer, unassigned) [Example 65], on human V1a receptor, the IC50 amounted to 0.63 nM and the “ratio IC50 hV2/hV1a” value came to 10.2. The IC50 on human V2 receptor was determined as 6.45 nM.

For `O=c1n(Cc2nc(N3CCNC(C(F)(F)F)C3)n(-c3ccccc3Cl)n2)nc(-c2ccc(Cl)cc2)n1C[C@H](O)C(F)(F)F` (single isomer, unassigned) [Example 67], the IC50 at human V1a receptor was 1.16 nM; on human V2 receptor, 22 nM. Further, at human V1a receptor, the “ratio IC50 hV2/hV1a” value is 19.0.

On to `O=c1n(Cc2nc(N3CCNC(C(F)(F)F)C3)n(-c3ccccc3Cl)n2)nc(-c2ccc(Cl)cc2)n1C[C@H](O)C(F)(F)F` (single isomer, unassigned) [Example 68], for which, at human V1a receptor, the IC50 was 0.45 nM and the “ratio IC50 hV2/hV1a” value is reported as 30.3. The IC50 on human V2 receptor was 13.5 nM.

As for `O=c1n(Cc2nc(N3CCOC(C(F)(F)F)C3)n(CCC(F)(F)F)n2)nc(-c2ccc(Cl)cc2)n1C[C@H](O)C(F)(F)F` (single isomer, unassigned) [Example 104], on human V1a receptor, the IC50 worked out at 30.5 nM and the “ratio IC50 hV2/hV1a” value was found to be 12.0. Also, the IC50 on human V2 receptor was 365 nM.

For the molecule `O=c1n(Cc2nc(N3CCOC(C(F)(F)F)C3)n(CCC(F)(F)F)n2)nc(-c2ccc(Cl)cc2)n1C[C@H](O)C(F)(F)F` (single isomer, unassigned) [Example 105], at human V1a receptor, the IC50 was found to be 22 nM and the “ratio IC50 hV2/hV1a” value was found to be 8.2. Further, on human V2 receptor, the IC50 was determined as 180 nM.

For the molecule `O=c1n(Cc2nc(N3CCNC(C(F)(F)F)C3)n(CCC(F)(F)F)n2)nc(-c2ccc(Cl)cc2)n1C[C@H](O)C(F)(F)F` (single isomer, unassigned) [Example 107], at human V1a receptor, the IC50 is 43.5 nM and the “ratio IC50 hV2/hV1a” value is 18.1. Further, on human V2 receptor, the IC50 was found to be 785 nM.

As for `O=c1n(Cc2nc(N3CCNC(C(F)(F)F)C3)n(CCC(F)(F)F)n2)nc(-c2ccc(Cl)cc2)n1C[C@H](O)C(F)(F)F` (single isomer, unassigned) [Example 108], the IC50 at human V1a receptor came to 10.7 nM; at human V2 receptor it was 84 nM. The “ratio IC50 hV2/hV1a” value at human V1a receptor is listed as 7.9.

For the molecule `CC(C)(C)CNc1nc(Cn2nc(-c3ccc(Cl)cc3)n(C[C@H](O)C(F)(F)F)c2=O)nn1-c1ccccc1Cl` [Example 1, 5-(4-Chlorophenyl)-2-({1-(2-chlorophenyl)-5-[(2,2-dimethylpropyl)amino]-1H-1,2,4-triazol-3-yl}methyl)-4-[(2S)-3,3,3-trifluoro-2-hydroxypropyl]-2,4-dihydro-3H-1,2,4-triazol-3-one], the IC50 at human V1a receptor is 0.75 nM; at human V2 receptor, 1.85 nM. The “ratio IC50 hV2/hV1a” value on human V1a receptor is recorded as 2.5.

`CS(=O)(=O)C1CN(c2nc(Cn3nc(-c4ccc(Cl)cc4)n(C[C@H](O)C(F)(F)F)c3=O)nn2-c2ccccc2Cl)C1` [Example 2, 5-(4-Chlorophenyl)-2-({1-(2-chlorophenyl)-5-[3-(methylsulfonyl)azetidin-1-yl]-1H-1,2,4-triazol-3-yl}methyl)-4-[(2S)-3,3,3-trifluoro-2-hydroxypropyl]-2,4-dihydro-3H-1,2,4-triazol-3-one]: at human V1a receptor, the IC50 was 0.43 nM and the “ratio IC50 hV2/hV1a” value worked out at 1.9. Further, at human V2 receptor, the IC50 was 0.84 nM.

In the case of `CC(C)(CF)CNc1nc(Cn2nc(-c3ccc(Cl)cc3)n(C[C@H](O)C(F)(F)F)c2=O)nn1-c1ccccc1Cl` [Example 3, 5-(4-Chlorophenyl)-2-({1-(2-chlorophenyl)-5-[(3-fluoro-2,2-dimethylpropyl)amino]-1H-1,2,4-triazol-3-yl}methyl)-4-[(2S)-3,3,3-trifluoro-2-hydroxypropyl]-2,4-dihydro-3H-1,2,4-triazol-3-one], at human V1a receptor, the IC50 was 0.62 nM and the “ratio IC50 hV2/hV1a” value is listed as 3.5. Besides, the IC50 at human V2 receptor turned out to be 2.15 nM.

The values are drawn from patent publication US11331314B2, “Amine substituted triazole derivatives and uses thereof” (Bayer Pharma Aktiengesellschaft, priority 2017, dated 2022).
